Data published in PubChem BioAssay (NCI).
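48-hour exposure; five concentrations; linearly interpolated endpoints. TGI: total growth inhibition.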

Legend:
Assay in all cases: DTP human tumour cell line panel, 48 h
NCI-H23 lung = tested on: NCI-H23 lung
IGROV1 ovarian = tested on: IGROV1 ovarian
SR leukemia = tested on: SR leukemia
LOX IMVI melanoma = tested on: LOX IMVI melanoma
SK-MEL-2 melanoma = tested on: SK-MEL-2 melanoma
HCT-15 colon = tested on: HCT-15 colon
HCT-116 colon = tested on: HCT-116 colon
HOP-92 NSCLC = tested on: HOP-92 NSCLC
786-0 renal = tested on: 786-0 renal
SK-MEL-5 melanoma = tested on: SK-MEL-5 melanoma
CAKI-1 renal = tested on: CAKI-1 renal
MDA-MB-435 = tested on: MDA-MB-435
HS 578T breast = tested on: HS 578T breast
MCF7 breast = tested on: MCF7 breast

Compound	TGI (NCI-H23 lung) [µM]	TGI (IGROV1 ovarian) [µM]	TGI (SR leukemia) [µM]	TGI (LOX IMVI melanoma) [µM]	TGI (SK-MEL-2 melanoma) [µM]	TGI (HCT-15 colon) [µM]	TGI (HCT-116 colon) [µM]	TGI (HOP-92 NSCLC) [µM]	TGI (786-0 renal) [µM]	TGI (SK-MEL-5 melanoma) [µM]	TGI (CAKI-1 renal) [µM]	TGI (MDA-MB-435) [µM]	TGI (HS 578T breast) [µM]	TGI (MCF7 breast) [µM]
CC12CCC([C@H](N3CCOCC3)/C1=N\OCCN1CCCC1)C2(C)C (stereo not given in full)	> 100	> 100	> 100	> 100	> 100	> 100	> 100	> 100	> 100	> 100	> 100			
COc1ccc(N(C)CN(C)c2nc(N(C)C)nc(N(C)C)n2)cc1	> 100	> 100	> 100	> 100	> 100	> 100	> 100	> 100	> 100	> 100	> 100			
O=C1NCN(c2ccccc2)C12CCN(CCc1ccc3[nH]c(=S)[nH]c3c1)CC2	> 100	> 100		36.8	41	> 100	> 100	93.7	> 100	31.7	> 100	35.6	> 100	92.8
O=C1CSC(/C=C/c2ccccc2)N1c1ccc(-c2ccc(-n3c(-c4ccccc4)nc4ccccc4c3=O)cc2)cc1 (stereo not given)	> 100	75.6	> 100	32.7	38.6	66.8		56.2	29.6	27.7	88.7	49.3		95.9
O=c1cc(CO)n(CCc2c[nH]c3ccccc23)cc1O	> 100	> 100		> 100	> 100	> 100	> 100	99.7	98.1	> 100	> 100	> 100	> 100	59.6
CCCCCCCC(=O)OC[C@@H](C[As](=O)(O)O)OC(=O)CCCCCCC	26.4	16.4	40.5			22.4	22.6	37.6	24.7	26.9				
COc1cccc(/C(CC(O)(C(F)(F)F)C(F)(F)F)=N\N(C)C)c1	> 100	> 100	> 100	> 100	> 100	> 100	> 100	> 100	> 100	> 100	> 100	> 100	> 100	
Cc1cc(C)nc(NS(=O)(=O)c2ccc(NN=c3c4ccccc4n(C)c4ccccc34)cc2)n1	> 100	> 100		96.7	58.8	> 100	> 100	> 100	> 100	62.9	> 100	69.1	> 100	55.7
COC(=O)Nc1nc2ccc(Oc3ccc4nc(NC(=O)OC)[nH]c4c3)cc2[nH]1	> 100	> 54.4	> 21.9	> 100	> 100	> 100	> 100	> 100	> 49.6	4.19	> 100	0.166		> 100
COc1ccc(-c2cc(-c3ccc(Cl)cc3)n(C3OC(CO)C(O)C(O)C3O)c(=S)c2C#N)cc1 (stereo not given)		> 100	> 100	> 100	97.9	> 100	> 100	> 100	35.5	> 100		> 100	> 100	
C=C(C)C#CC(O)(C(=O)OC1CCN(C)CC1)C(C)C (stereo not given)	> 100	> 100	> 100	> 100		> 100	> 100		> 100	> 100	> 100	> 100		> 100
COc1ccc(/C(CCl)=C(\Nc2ccccc2)c2ccc(OC)c(OC)c2)cc1OC	> 100			> 100	> 100	> 100	> 100	> 100	> 100	> 100	> 100	> 100	> 100	> 100
Cc1cccc2[nH]c3cc(O)cc(O)c3c(=O)c12	> 10	> 10		> 10	> 10	> 10	> 10	> 10	> 10	> 10	> 10	> 10	> 10	
CC1(C)OCC2(CO1)CSCCCSCC1(COC(C)(C)OC1)CSCCCSC2	> 100	> 100	> 100	> 100		> 100	> 100	> 100	> 100	> 100		> 100		
CCN(CC)c1ccc2c(c1)OC(=O)C(c1nnc(-c3ccc([N+](=O)[O-])cc3)o1)C2 (stereo not given)	> 100	> 100		> 100	> 100	> 100	> 100	> 100	> 100	> 100	> 100	> 100	> 100	> 100
CCC(CC)C(=O)OC[n+]1ccc(-c2c(COC(=O)NC(C)C)c(COC(=O)NC(C)C)c3n2CCC3)cc1	> 100	> 100	> 100			> 100		> 100	> 100	> 100	> 100		> 100	> 100
O=C1c2cccc3cccc(c23)C(=O)N1CCCNCCCCNCCCN1C(=O)c2cccc3cccc(c23)C1=O	0.866	1.83	0.219	0.255	1.89	13.8	0.668	1.59	0.734	1.93	5.65	1.28	0.216	
O=C1CSC(/C(=C/c2ccccc2)c2nc3ccccc3[nH]2)=N1	92.7	> 100	> 100	> 100	> 100	> 100	> 100	> 100	> 100	38.3	> 100			

Compound	TGI (NCI-H23 lung) [µM]	TGI (IGROV1 ovarian) [µM]	TGI (SR leukemia) [µM]	TGI (LOX IMVI melanoma) [µM]	TGI (SK-MEL-2 melanoma) [µM]	TGI (HCT-15 colon) [µM]	TGI (HCT-116 colon) [µM]	TGI (HOP-92 NSCLC) [µM]	TGI (786-0 renal) [µM]	TGI (SK-MEL-5 melanoma) [µM]	TGI (CAKI-1 renal) [µM]	TGI (MDA-MB-435) [µM]	TGI (HS 578T breast) [µM]	TGI (MCF7 breast) [µM]
CCN(CC)CCNc1ccc2ncn3c4c(OC)ccc(OC)c4c(=O)c1c23	75.5		43.6			38.5	17.3	31.2	70.9	31.4	> 100			17
CC1CC(=O)Nc2cc(Cl)ccc2N1C(=O)C1CC1 (stereo not given)	> 100	> 100		> 100	> 100	> 100	> 100	> 100	> 100	> 100	> 100	> 100	> 100	> 100
CC1CC(C)[C@H](O)C([C@H](O)CC2CC(=O)N(C)C(=O)C2)C1 (stereo not given in full)	> 100	> 100		> 100	> 100	> 100	> 100	> 100	> 100	> 100	> 100	> 100	> 100	> 100
NCCC(=O)N[C@H](Cc1cc(O)c(O)c(SCC(NC(=O)CC[C@H](N)C(=O)O)C(=O)NCC(=O)O)c1)C(=O)O (stereo not given in full)	> 50	> 50			> 50	> 50	> 50	> 50	> 50	> 50	> 50	> 50		> 50
CC1(c2cccc3c2C2(O)C=CC4(CCC32)OCCO4)OCCO1 (stereo not given)	> 100	> 100		> 100	> 100	> 100	> 100		> 100	> 100	> 100			
O=C(O)c1c[nH]c2c(=O)[nH]cnc12	> 100	> 100	> 100	> 100	> 100	> 100	> 100	> 100	> 100	> 100	> 100			
COc1cc(C2S/C(=C/c3ccccc3)C(=O)N2c2cc(Cl)ccc2Cl)cc(OC)c1OC (stereo not given)	> 100	68.3	> 100	36.1	> 100	> 100	28.1	> 100	41.3	> 100	> 100	> 100		> 100
CCC(C)C(C(=O)N/N=C1/SCC(=O)N1C)C(=O)N/N=C1/SCC(=O)N1C (stereo not given)	> 100	> 100		> 100	> 100	> 100	> 100	> 100	> 100	> 100	> 100	> 100	> 100	> 100
C=C(C)[C@@H]1C[C@H]2O[C@](O)(C(=C)CC(=O)/C=C(/C)C[C@@H]3OC(=O)[C@]24O[C@@H]34)[C@H]1O	> 100	> 100	> 100	> 100	> 100	> 100	> 100		> 100	> 100	> 100	> 100		> 100
CC1=NN(c2nc(N)nc(/C(C#N)=C/c3ccc([N+](=O)[O-])o3)n2)C(C)(C)C1	10.8	3.82		3.07	16.7		2.94	3.4	2.99	17	3.81	6.38	71.4	3.21
C=C1CC(Cn2ccc(=O)[nH]c2=O)(c2ccc(-c3ccccc3)cc2)OC1=O (stereo not given)	8.4	2.64		1.07	4.55	3.72	0.892	2.62	1.67	2.39	2.7	6.12	22.9	2.67
Oc1[nH]c2ccccc2c1N=NC(=S)N1CCCCC1	9.14	1.77	4.31	3.2	6.12	2.42	1.54	6.58	6.64	1.03	4.43	4.58		6.26
O[C@@]1(c2cccs2)c2cccc(Cl)c2[C@](O)(c2cccs2)c2cccc(Cl)c21	39.8	33		33.2	42.4	61.7	27.4	> 100	32.5	34.7	> 100	35	49.2	37.2
O=[N+]([O-])c1ccc(N=Nc2c(O)ccc3cc(S(=O)(=O)O)ccc23)cc1	> 100	> 100		> 100	> 100	> 100	> 100	> 100	> 100	> 100	> 100	> 100	> 100	
CCC(CS(=O)(=O)O)[N+](=O)[O-] (stereo not given)	> 100	> 100		> 100	> 100	> 100	> 100		> 100	> 100	> 100	> 100	> 100	> 100
CC(NC(=O)C(OC(=O)C(C)NC(=O)OC(C)(C)C)C(C)C)C(=O)OC(C(=O)O)C(C)C (stereo not given)		> 100	> 100		> 100	> 100		> 100	> 100	> 100	> 100	> 100	> 100	
Nc1nc(Cl)c(N)c(NCC2(CO)CC(Cc3ccccc3)C2)n1 (stereo not given)	> 100	> 100		> 100	> 100	> 100	> 100	> 100	> 100	18.5	> 100	60	> 100	> 69.2
CC(CN(C)C)C(=O)c1ccccc1C(=O)O (stereo not given)	89.1	> 100		> 100	46.9	> 100	> 100	> 100	> 100	> 100	83.9	50.9	80.6	> 100
